According to patent US6344344B1, “Method for producing uridine-5'-monophosphate by fermentation using mutant strains of coryneform bacteria” (Ajinomoto Co., Inc., priority 1999, dated 2002):
Where two headings read alike, the source gives them in different places.

Experiments:
Type in all cases: cell-based
[1] = system: Corynebacterium ammoniagenes LK 40-2 (VKPM B-7811); assay: Growth of the strain in the presence of pyrimidine analogues
Description: Corynebacterium ammoniagenes VKPM B-6307 was treated with 50 μg/ml of NTG for 20 minutes followed by ampicillin-enrichment procedure for obtaining mutants which could not utilize uridine effectively as a sole carbon source (uridine was added into liquid medium A of Table 2 instead of glucose). The obtained mutant cells were plated on a medium B of Table 2 supplemented with guanine (100 μg/ml), arginine (500 μg/ml), casamino acids (200 μg/ml) and 100 μg/ml of 5-fluorouridine.
The inoculated plates were incubated at 30° C. for 3 days.
The extent of resistance to various pyrimidine analogues of this strain as well as that of the parent strain VKPM B-6307 is shown in Table 4.
(§1) Extent of resistance of this strain to various pyrimidine analogues as well as that of the parent strains LK 40-2 and LK 75-15 is shown in Table 11.

[2] = system: Corynebacterium ammoniagenes LK 75-15 (VKPM B-7812); assay: as above
[3] = system: Corynebacterium ammoniagenes ATCC 6872; assay: as above; details: basal agar medium A
[4] = system: Corynebacterium ammoniagenes LK 75-66 (VKPM B-7813); assay: as above
Text: as §1

[5] = system: Corynebacterium ammoniagenes LK 75-15 (VKPM B-7812); assay: as above; remark: listed apart in the source
Text: as §1

[6] = system: Corynebacterium ammoniagenes VKPM B-6307; details: for Growth of the strains B-6307: basal agar medium A; for Growth of the strain VKPM B-6307 With addition (medium B): medium B (guanine, arginine, casamino acid added)
[7] = medium B with 100 μg/ml analogue, 30° C., 3 days

O=c1[nH]cc(F)c(=O)[nH]1 [5-Fluorouracil]
−: Growth of the Strain LK 75-15 ([2]; Table 8, analogue 300 μg/ml) | Growth of the Strain LK 75-15 ([2]; Table 8, analogue 500 μg/ml) | Growth of the Strain LK 75-15 ([2]; Table 8, analogue 1000 μg/ml) | Growth of the strains ATCC6872 ([3]; analogue 50 μg/ml) | Growth of the strains ATCC6872 ([3]; analogue 100 μg/ml) | Growth of the strains ATCC6872 ([3]; analogue 200 μg/ml) | Growth of the strains ATCC6872 ([3]; analogue 600 μg/ml) | Growth of the Strain LK 75-66 ([4]; Table 11, analogue 500 μg/ml) | Growth of the Strain LK 75-66 ([4]; Table 11, analogue 1000 μg/ml) | Growth of the Strain LK 75-15 ([5]; Table 11, analogue 300 μg/ml) | Growth of the Strain LK 75-15 ([5]; Table 11, analogue 500 μg/ml) | Growth of the Strain LK 75-15 ([5]; Table 11, analogue 1000 μg/ml) | Growth of the strain B-6307 ([6]; Table 4, analogue 100 μg/ml) | Growth of the strain B-6307 ([6]; Table 4, analogue 300 μg/ml) | Growth of the strain B-6307 ([6]; Table 4, analogue 500 μg/ml) | Growth of the strain B-6307 ([6]; Table 4, analogue 1000 μg/ml) | Growth of the strain B-6307 ([6]; Table 8, analogue 100 μg/ml) | Growth of the strain B-6307 ([6]; Table 8, analogue 300 μg/ml) | Growth of the strain B-6307 ([6]; Table 8, analogue 500 μg/ml) | Growth of the strain B-6307 ([6]; Table 8, analogue 1000 μg/ml) | Growth of the strain VKPM B-6307 With addition (medium B) ([6]; analogue 100 μg/ml) | Growth of the strain VKPM B-6307 With addition (medium B) ([6]; analogue 200 μg/ml) | Growth of the strain VKPM B-6307 With addition (medium B) ([6]; analogue 500 μg/ml) | Growth of the strain VKPM B-6307 With addition (medium B) ([6]; analogue 1000 μg/ml)
+: Growth of the strain LK 40-2 ([1]; Table 4, analogue 100 μg/ml) | Growth of the strain LK 40-2 ([1]; Table 4, analogue 300 μg/ml) | Growth of the strain LK 40-2 ([1]; Table 4, analogue 500 μg/ml) | Growth of the strain LK 40-2 ([1]; Table 4, analogue 1000 μg/ml) | Growth of the strain LK 40-2 ([1]; Table 11, analogue 100 μg/ml) | Growth of the strain LK 40-2 ([1]; Table 11, analogue 300 μg/ml) | Growth of the strain LK 40-2 ([1]; Table 11, analogue 500 μg/ml) | Growth of the strain LK 40-2 ([1]; Table 11, analogue 1000 μg/ml) | Growth of the Strain LK 75-15 ([2]; Table 8, analogue 100 μg/ml) | Growth of the Strain LK 75-66 ([4]; Table 11, analogue 100 μg/ml) | Growth of the Strain LK 75-66 ([4]; Table 11, analogue 300 μg/ml) | Growth of the Strain LK 75-15 ([5]; Table 11, analogue 100 μg/ml) | Growth of the strains B-6307 ([6]; analogue 50 μg/ml) | Growth of the strains B-6307 ([6]; analogue 100 μg/ml) | Growth of the strain VKPM B-6307 No addition (medium A) ([6]; analogue 100 μg/ml) | Growth of the strains B-6307 ([6]; analogue 200 μg/ml) | Growth of the strain VKPM B-6307 No addition (medium A) ([6]; analogue 200 μg/ml) | Growth of the strain VKPM B-6307 No addition (medium A) ([6]; analogue 500 μg/ml) | Growth of the strains B-6307 ([6]; analogue 600 μg/ml) | Growth of the strain VKPM B-6307 No addition (medium A) ([6]; analogue 1000 μg/ml)

O=c1[nH]c(=O)n([C@@H]2O[C@H](CO)[C@@H](O)[C@H]2O)cc1F [5-Fluouridine]
−: Growth of the Strain LK 75-15 ([2]; Table 8, analogue 500 μg/ml) | Growth of the Strain LK 75-15 ([2]; Table 8, analogue 1000 μg/ml) | Growth of the Strain LK 75-15 ([2]; Table 11, analogue 500 μg/ml) | Growth of the strains ATCC6872 ([3]; analogue 100 μg/ml) | Growth of the strains ATCC6872 ([3]; analogue 200 μg/ml) | Growth of the strains ATCC6872 ([3]; analogue 400 μg/ml) | Growth of the strains ATCC6872 ([3]; analogue 600 μg/ml) | Growth of the Strain LK 75-66 ([4]; Table 11, analogue 1000 μg/ml) | Growth of the Strain LK 75-15 ([5]; Table 11, analogue 1000 μg/ml) | Growth of the strain B-6307 ([6]; Table 4, analogue 100 μg/ml) | Growth of the strain B-6307 ([6]; Table 4, analogue 300 μg/ml) | Growth of the strain B-6307 ([6]; Table 4, analogue 500 μg/ml) | Growth of the strain B-6307 ([6]; Table 4, analogue 1000 μg/ml) | Growth of the strain B-6307 ([6]; Table 8, analogue 100 μg/ml) | Growth of the strain B-6307 ([6]; Table 8, analogue 300 μg/ml) | Growth of the strain B-6307 ([6]; Table 8, analogue 500 μg/ml) | Growth of the strain B-6307 ([6]; Table 8, analogue 1000 μg/ml) | Growth of the strain VKPM B-6307 With addition (medium B) ([6]; analogue 100 μg/ml) | Growth of the strain VKPM B-6307 With addition (medium B) ([6]; analogue 200 μg/ml) | Growth of the strain VKPM B-6307 With addition (medium B) ([6]; analogue 500 μg/ml) | Growth of the strain VKPM B-6307 With addition (medium B) ([6]; analogue 1000 μg/ml)
capable of growing: growth of strain LK 40-2 on supplemented medium [1, 7]
+: Growth of the strain LK 40-2 ([1]; Table 4, analogue 100 μg/ml) | Growth of the strain LK 40-2 ([1]; Table 4, analogue 300 μg/ml) | Growth of the strain LK 40-2 ([1]; Table 4, analogue 500 μg/ml) | Growth of the strain LK 40-2 ([1]; Table 4, analogue 1000 μg/ml) | Growth of the strain LK 40-2 ([1]; Table 11, analogue 100 μg/ml) | Growth of the strain LK 40-2 ([1]; Table 11, analogue 300 μg/ml) | Growth of the strain LK 40-2 ([1]; Table 11, analogue 500 μg/ml) | Growth of the strain LK 40-2 ([1]; Table 11, analogue 1000 μg/ml) | Growth of the Strain LK 75-15 ([2]; Table 8, analogue 100 μg/ml) | Growth of the Strain LK 75-15 ([2]; Table 8, analogue 300 μg/ml) | Growth of the Strain LK 75-15 ([2]; Table 11, analogue 300 μg/ml) | Growth of the Strain LK 75-66 ([4]; Table 11, analogue 100 μg/ml) | Growth of the Strain LK 75-66 ([4]; Table 11, analogue 300 μg/ml) | Growth of the Strain LK 75-66 ([4]; Table 11, analogue 500 μg/ml) | Growth of the Strain LK 75-15 ([5]; Table 11, analogue 100 μg/ml) | Growth of the strains B-6307 ([6]; analogue 100 μg/ml) | Growth of the strain VKPM B-6307 No addition (medium A) ([6]; analogue 100 μg/ml) | Growth of the strains B-6307 ([6]; analogue 200 μg/ml) | Growth of the strain VKPM B-6307 No addition (medium A) ([6]; analogue 200 μg/ml) | Growth of the strains B-6307 ([6]; analogue 400 μg/ml) | Growth of the strain VKPM B-6307 No addition (medium A) ([6]; analogue 500 μg/ml) | Growth of the strains B-6307 ([6]; analogue 600 μg/ml) | Growth of the strain VKPM B-6307 No addition (medium A) ([6]; analogue 1000 μg/ml)
could not grow: growth of the parent strain on supplemented medium [6, 7]
